Laboratory results published in US20130059324A1, “SYSTEMS AND METHODS FOR MECHANICALLY STRAINED CELL CULTURE” (THE UNIVERSITY OF KANSAS, priority 2010, published 2013).
pIC50: −log10 of the molar value.

Tests used:
[1] = test system: H358 cells grown as 3D tissues; assay: 3D culture antiproliferative MTS assay in collagen with and without mechanical forces; format: cell-based; details: Homo sapiens, NCI-H358, 72 h, H358 3D in collagen, 72 hours exposure
Description: Effects of mechanical forces on engineered 3-dimensional tumor tissues were also studied, An experiment was conducted with paclitaxel, which was tested in the presence and absence of mechanical forces in H358 cells (bronchioalveolar carcinoma) grown as 3D tissues in type 1 rat tail collagen scaffold. The cells were seeded at a density of 4×10^6 cells per well in 6-well Bioflex collagen I plates and cultured in PRMI 1640 medium The forces that were tested were configured to mimic normal respiration. After 24 hours of seeding, cells were stretched from 0% to a maximum of 20% elongation for 2 seconds followed by 2 seconds of rest continuously for 4 days. Control group included cells that were plated in collagen at the same densities and incubated for 5 days without mechanical forces. […] As a note, a computing system similar to FIG. 6 can be used to control an experiment system in order to provide predetermined cycles of mechanical strain and relaxation.
Following 24 hours of stetching, paclitaxel was added to H358 cells in ten 1:3 dilutions with starting concentrations 100 μM. […] Dose response curves were plotted and corresponding IC50 values (concentration of the drug at which 50% of the cells are inhibited) were calculated for stretched and un-stretched conditions using Graphpad Prism software.

NCI-H358 cells = assay: Drug exposure with or without simulated forces, 6-well Bioflex plates, live cell count and exponential growth model; format: cell-based, human
Text: Treatments 1, 2 and 3 served as unstretched controls for Treatments 4, 5 and 6, respectively. For each cell line and drug, all treatments were independently repeated at least 3 times on different days, with 3 replicates per Treatments 1 and 4 (n=9) and 5 replicates per all other treatments (n=15).
The NCI-H358 (ATCC® CRL-5807) and A549 (ATCC® CCL-185) cell lines were obtained from American Type Culture Collection (ATCC, Manassas, Va.) and cultured in RPMI-1640 (NCI-H358) and HAM's F12K (A549) media containing 10% Fetal Bovine Serum (Sigma Aldrich, St. Louis, Mo.) and 1% Penicillin Streptomycin (Sigma Aldrich). Cells were passaged in 75 cm2 culture flasks at 37° C. in 5% CO2, and trypsinized using TryplE™ Express (Gibco) containing phenol red.
Cells were plated in 6-well Bioflex® plates (Flexcell® International Corporation, Hillsborough, N.C.). Each well of the plate has a flexible elastic membrane coated with a thin layer of type I collagen. Type I collagen was chosen since it more accurately represents the physiology of lung tumor cells in vivo. The Flexcell is not configured for drug studies as described herein, and had to be modified as described herein. […] Therefore, to have the same number of cells in culture at the time of drug exposure, initial seeding densities for treatments not involving simulated forces (Treatments 1-3) and those involving forces (Treatments 4-6) were adjusted for each cell line. In Treatments 1, 2 and 3, NCI-H358 and A549 cells were plated at a density of 100,000 and 20,000 cells/well in 2 ml of corresponding media, respectively. For treatments involving simulated forces (Treatments 4-6), NCI-H358 and A549 cells were plated at a density of 170,000 and 35,000 cells/well, respectively.
After allowing the cells to adhere to the membrane for 24 hours, the plates assigned for simulated forces were stretched using the FX-4000 Tension plus unit (Flexcell® International Corporation, Hillsborough, N.C.). The Flexcell unit was configured to deliver an alternating positive and negative pressure beneath the cell culture surfaces. Negative pressure pulls the culture surface down over a stationary Delrin post on the baseplate, delivering a uniform biaxial strain to the cells, and subsequent application of positive pressure releases this distension (FIGS. 9A and 9B.) In this manner, the alternating positive and negative pressure simulates forces experienced during respiration. Culture plates experiencing forces were fitted with rubber gaskets and placed on circular loading stations in the baseplate. […] Cells were preconditioned with mechanical forces for 48 hours, in an incubator at 37° C., 5% CO2 and 95% relative humidity.
After 72 hours of initial seeding, one of the five drugs was added to Treatments 3 and 6 of each cell line. […] The IC90, concentration of the drug that inhibits the growth of 90% of the cells in a static monolayer culture, was used to assure a significant inhibition in the absence of simulated forces. To insure comparability, an aliquot of 1 ml of media without the drug was added to each well in Treatments 2 and 5. After adding the drug or 1 ml of media, the plates from Treatments 5 and 6 were placed back on the baseplate and subjected to the same force profile as before for the remaining 72 hours. Plates from Treatments 2 and 3 (without forces) were placed in the same incubator for the remaining 72 hours.
Cells were trypsinized and counted at the end of day 3 in Treatments 1 and 4, and at the end of day 6 in the other treatments, using a Beckman Coulter Vi-Cell Analyzer (Beckman Coulter, Fullerton, Calif.). To examine changes in morphology, microphotographs of A549 and NCI-H358 cells were taken at the end of Treatments 1, 2, 4 and 5 using an Olympus inverted microscope and a 10× objective.
The standard exponential cell growth model (28) was used to describe the changes in live cell counts after each treatment. […]

- pIC50 ([1]; absence of mechanical stress): 4.65
- pIC50 ([1]; cells experiencing mechanical stress (0-20% elongation)): 6.70
SMILES: CC(=O)O[C@H]1C(=O)[C@@]2(C)[C@H]([C@H](OC(=O)c3ccccc3)[C@]3(O)C[C@H](OC(=O)[C@H](O)[C@@H](NC(=O)c4ccccc4)c4ccccc4)C(C)=C1C3(C)C)[C@]1(OC(C)=O)CO[C@@H]1C[C@@H]2O [Paclitaxel]
- Growth Rates, With forces (NCI-H358 cells; drug at IC90 for 3 days, 20% maximum strain, 15 cycles/minute): −0.276 per day
- Growth Rates, Without forces (NCI-H358 cells; drug at IC90 for 3 days, no forces): −0.005 per day
- Effectiveness of The Drug, Without forces (E) (NCI-H358 cells; percentage reduction in live cell counts, 3-day drug exposure at IC90, no forces): 70.5%
- Effectiveness of The Drug, With forces (Ef) (NCI-H358 cells; percentage reduction in live cell counts, 3-day drug exposure at IC90, simulated forces): 66.8%
